Measurements as given in patent US20070185161A1, “Bicyclic substituted indole-derivative steroid hormone nuclear receptor modulators” (priority 2004, published 2007).

The compounds below were run against T1, glucocorticoid receptor (A549 human lung epithelial cell extract) (Homo sapiens, UniProt P04150) (assay: Glucocorticoid Receptor Binding Assay (Method 1)). Settings: [3H]-dexamethasone, racemic mixture unless otherwise indicated, read-out: GR Ki (nM) Method 1.
T1 construct: host or cells: A549 human lung epithelial cells
T1 sequence (P04150 1-777): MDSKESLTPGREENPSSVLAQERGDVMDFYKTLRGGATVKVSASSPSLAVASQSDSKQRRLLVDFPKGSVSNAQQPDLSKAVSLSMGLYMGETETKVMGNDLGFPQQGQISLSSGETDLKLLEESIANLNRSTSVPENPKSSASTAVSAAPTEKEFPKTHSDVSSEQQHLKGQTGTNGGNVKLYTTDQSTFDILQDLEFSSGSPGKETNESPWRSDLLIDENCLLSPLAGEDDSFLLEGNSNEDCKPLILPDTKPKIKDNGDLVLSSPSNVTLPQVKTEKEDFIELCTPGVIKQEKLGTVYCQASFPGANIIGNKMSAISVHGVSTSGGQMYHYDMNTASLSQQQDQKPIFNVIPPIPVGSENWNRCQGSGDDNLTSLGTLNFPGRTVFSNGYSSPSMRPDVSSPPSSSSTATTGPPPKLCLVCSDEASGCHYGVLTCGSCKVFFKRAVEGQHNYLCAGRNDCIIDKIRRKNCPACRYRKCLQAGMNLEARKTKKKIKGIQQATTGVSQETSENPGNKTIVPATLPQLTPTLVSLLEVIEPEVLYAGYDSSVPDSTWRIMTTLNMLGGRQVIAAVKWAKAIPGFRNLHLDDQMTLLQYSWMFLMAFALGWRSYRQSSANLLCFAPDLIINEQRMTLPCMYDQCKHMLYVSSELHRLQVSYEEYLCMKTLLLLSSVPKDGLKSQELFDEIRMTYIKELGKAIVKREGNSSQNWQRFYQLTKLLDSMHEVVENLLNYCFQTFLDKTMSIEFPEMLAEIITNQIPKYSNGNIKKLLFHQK
Description: A549 human lung epithelial cells (ATCC) are grown at a scale where gram quantity cell pellets are obtained. Harvested cell pellets are washed twice in cold phosphate buffered saline, centrifuged, and resuspended in cold assay binding buffer. The assay binding buffer consists of 10% glycerol, 50 mM Tris-HCl (pH7.2), 75 mM sodium chloride, 1.5 mM magnesium chloride, 1.5 mM EDTA, and 10 mM sodium molybdate. Cell suspensions were lysed via sonication, centrifuged, and the “extract” supernatant is snap frozen and stored at −80 C until needed.
GR binding assays are performed in a final volume of 140 ul containing 50-200 ug of A549 cell extract and 1.86 nM [^3H]-dexamethasone (Amersham) plus varying concentrations of test compound or vehicle. Briefly, assays are prepared at RT in 96-well Fisher 3356 plates, each well containing 100 ul of A549 cell extract, 20 ul of [^3H]-dexamethasone, and 20 ul of test compound/vehicle. Incubations are carried out at 4 degrees Celsius for 16 hours. After incubation, 70 ul of 3× dextran-coated charcoal solution is added to each reaction, mixed, and incubated for 8 minutes at RT. 3×-dextran-coated charcoal solution consists of 250 ml assay binding buffer, 3.75 g Norit A charcoal (Sigma), and 1.25 g dextran T-70 (Amersham). Charcoal/unbound radioligand complexes are removed by centrifugation of the plate and 140 ul of supernatant from each well is transferred to another 96 well Optiplate (Packard Instruments). 200 ul of Microscint-20 scinillant (Packard Instruments) is added to each well and amount of receptor bound radioligand is determined using Packard Instruments TopCount instrument.
IC50 values, defined as the concentration of test compound required to decrease [^3H]-dexamethasone binding by 50%, are then determined. Ki values for each respective test compound can then be calculated by application of the Cheng-Prusoff equation as described in Cheng et al., Relationship Between The Inhibition Constant (Ki) and The Concentration of Inhibitor Which Causes 50% Inhibition (IC50) of an Enzymatic Reaction, Biochem. Pharmacol., 22: 3099-31088; (1973).

Compound | Ki
CCC1(c2c[nH]c3c(NS(C)(=O)=O)cccc23)CCc2cc(F)ccc21 (racemic) [Example 1, N-[3-(1-ethyl-5-fluoro-indan-1-yl)-1H-indol-7-yl]-methanesulfonamide] | ≤ 500 nM
CC1(c2c[nH]c3c(NS(C)(=O)=O)cccc23)CCc2cc(F)ccc21 (racemic) [Example 21, N-[3-(5-Fluoro-1-methyl-indan-1-yl)-1H-indol-7-yl]-methanesulfonamide] | ≤ 500 nM
CCC1(c2c[nH]c3c(NS(C)(=O)=O)cccc23)CCc2cc(F)cc(F)c21 (racemic) [Example 23, N-[3-(1-Ethyl-5,7-difluoro-indan-1-yl)-1H-indol-7-yl]-methanesulfonamide] | ≤ 500 nM
CC1(c2c[nH]c3c(NS(C)(=O)=O)cccc23)CCCc2cc(F)ccc21 (racemic) [Example 28, N-[3-(6-Fluoro-1-methyl-1,2,3,4-tetrahydro-naphthalen-1-yl)-1H-indol-7-yl]-methanesulfonamide] | ≤ 500 nM
CCC1(c2c[nH]c3c(NS(C)(=O)=O)cccc23)CCCc2cc(F)ccc21 (racemic) [Example 29, N-[3-(1-Ethyl-6-fluoro-1,2,3,4-tetrahydro-naphthalen-1-yl)-1H-indol-7-yl]-methanesulfonamide] | ≤ 500 nM
CCC1(c2c[nH]c3c(NS(C)(=O)=O)cccc23)CCCc2cc(F)cc(F)c21 (racemic) [Example 31, N-[3-(1-Ethyl-6,8-difluoro-1,2,3,4-tetrahydro-naphthalen-1-yl)-1H-indol-7-yl]-methanesulfonamide] | ≤ 500 nM
CCC1(c2c[nH]c3c(NS(C)(=O)=O)cccc23)CCc2cc(F)ccc21 (single isomer, unassigned) [Example 1A, N-[3-(1-ethyl-5-fluoro-indan-1-yl)-1H-indol-7-yl]-methanesulfonamide] | ≤ 500 nM
CC1(c2c[nH]c3c(NS(C)(=O)=O)cccc23)CCc2cc(F)ccc21 (single isomer, unassigned) [Example 21A, N-[3-(5-Fluoro-1-methyl-indan-1-yl)-1H-indol-7-yl]-methanesulfonamide] | ≤ 500 nM
CC1(c2c[nH]c3c(NS(C)(=O)=O)cccc23)CCc2cc(F)ccc21 (single isomer, unassigned) [Example 21B, N-[3-(5-Fluoro-1-methyl-indan-1-yl)-1H-indol-7-yl]-methanesulfonamide] | ≤ 500 nM
CCC1(c2c[nH]c3c(NS(C)(=O)=O)cccc23)CCc2cc(F)cc(F)c21 (single isomer, unassigned) [Example 23A, N-[3-(1-Ethyl-5,7-difluoro-indan-1-yl)-1H-indol-7-yl]-methanesulfonamide] | ≤ 500 nM
CCC1(c2c[nH]c3c(NS(C)(=O)=O)cccc23)CCc2cc(F)cc(F)c21 (single isomer, unassigned) [Example 23B, N-[3-(1-Ethyl-5,7-difluoro-indan-1-yl)-1H-indol-7-yl]-methanesulfonamide] | ≤ 10000 nM
CC1(c2c[nH]c3c(NS(C)(=O)=O)cccc23)CCCc2cc(F)ccc21 (single isomer, unassigned) [Example 28A, N-[3-(6-Fluoro-1-methyl-1,2,3,4-tetrahydro-naphthalen-1-yl)-1H-indol-7-yl]-methanesulfonamide] | ≤ 500 nM
CC1(c2c[nH]c3c(NS(C)(=O)=O)cccc23)CCCc2cc(F)ccc21 (single isomer, unassigned) [Example 28B, N-[3-(6-Fluoro-1-methyl-1,2,3,4-tetrahydro-naphthalen-1-yl)-1H-indol-7-yl]-methanesulfonamide] | ≤ 500 nM
CCC1(c2c[nH]c3c(NS(C)(=O)=O)cccc23)CCCc2cc(F)ccc21 (single isomer, unassigned) [Example 29A, N-[3-(1-Ethyl-6-fluoro-1,2,3,4-tetrahydro-naphthalen-1-yl)-1H-indol-7-yl]-methanesulfonamide] | ≤ 500 nM
CCC1(c2c[nH]c3c(NS(C)(=O)=O)cccc23)CCCc2cc(F)ccc21 (single isomer, unassigned) [Example 29B, N-[3-(1-Ethyl-6-fluoro-1,2,3,4-tetrahydro-naphthalen-1-yl)-1H-indol-7-yl]-methanesulfonamide] | ≤ 500 nM
CC1(c2c[nH]c3c(NS(C)(=O)=O)cccc23)CCc2ccccc21 (stereo not drawn) [Example 20, N-[3-(1-Methyl-indan-1-yl)-1H-indol-7-yl]-methanesulfonamide] | ≤ 500 nM
CC1(c2c[nH]c3c(NS(C)(=O)=O)cccc23)CCc2cc(-n3cccn3)ccc21 (stereo not drawn) [Example 24, N-[3-(1-Methyl-5-pyrazol-1-yl-indan-1-yl)-1H-indol-7-yl]-methanesulfonamide] | ≤ 500 nM
CS(=O)(=O)Nc1cccc2c(C3CCCc4ccccc43)c[nH]c12 (stereo not drawn) [Example 25, N-[3-(1,2,3,4-Tetrahydro-naphthalen-1-yl)-1H-indol-7-yl]-methanesulfonamide] | ≤ 500 nM
CC1(c2c[nH]c3c(NS(C)(=O)=O)cccc23)CCCc2ccccc21 (stereo not drawn) [Example 26, N-[3-(1-Methyl-1,2,3,4-tetrahydro-naphthalen-1-yl)-1H-indol-7-yl]-methanesulfonamide] | ≤ 500 nM
CCC1(c2c[nH]c3c(NS(C)(=O)=O)cccc23)CCCc2ccccc21 (stereo not drawn) [Example 27, N-[3-(1-Ethyl-1,2,3,4-tetrahydro-naphthalen-1-yl)-1H-indol-7-yl]-methanesulfonamide] | ≤ 500 nM
CC1(c2c[nH]c3c(NS(C)(=O)=O)cccc23)CCOc2ccccc21 (stereo not drawn) [Example 32, N-[3-(4-Methyl-chroman-4-yl)-1H-indol-7-yl]-methanesulfonamide] | ≤ 500 nM
CC1(c2c[nH]c3c(NS(C)(=O)=O)cccc23)CCOc2ccc(F)cc21 (stereo not drawn) [Example 33, N-[3-(6-Fluoro-4-methyl-chroman-4-yl)-1H-indol-7-yl]-methanesulfonamide] | ≤ 500 nM
CC1(c2c[nH]c3c(NS(C)(=O)=O)cccc23)CCSc2ccccc21 (stereo not drawn) [Example 37, N-[3-(4-Methyl-thiochroman-4-yl)-1-indol-7-yl]-methanesulfonamide] | ≤ 500 nM
CC1(c2c[nH]c3c(NS(C)(=O)=O)cccc23)CCCCc2ccccc21 (stereo not drawn) [Example 38, N-[3-(5-Methyl-6,7,8,9-tetrahydro-5H-benzocyclohepten-5-yl)-1H-indol-7-yl]-methanesulfonamide] | ≤ 500 nM
